From patent US7585895B2, “Therapeutic substituted cyclopentanes” (Allergan, Inc., priority 2005, dated 2009)

Key:
EP4 receptors = target: T1, EP4 receptors (Homo sapiens, UniProt P35408); test: Radioligand binding, [3H]PGE2, EP4 (Ki); settings: HEK-293 cells stably expressing EP4, [3H]PGE2
T1 construct: expressed in transfected cells; membrane pellet
Method: (§1) HEK-293 cells stably expressing the human or feline FP receptor, or EP1, EP2, or EP4 receptors were washed with TME buffer, scraped from the bottom of the flasks, and homogenized for 30 sec using a Brinkman PT 10/35 polytron. TME buffer was added to achieve a final 40 ml volume in the centrifuge tubes (the composition of TME is 100 mM TRIS base, 20 mM MgCl2, […]; 10N HCl is added to achieve a pH of 7.4).
(§2) The cell homogenate was centrifuged at 19000 r.p.m. for 20 min at 4° C using a Beckman Ti-60 rotor. The resultant pellet was resuspended in TME buffer to give a final 1 mg/ml protein concentration, as determined by Biorad assay. Radioligand binding competition assays vs. [^3H-]17-phenyl PGF2α. (5 nM) were performed in a 100 μl volume for 60 min. Binding reactions were started by adding plasma membrane fraction. The reaction was terminated by the addition of 4 ml ice-cold TRIS-HCl buffer and rapid filtration through glass fiber GF/B filters using a Brandel cell harvester. The filters were washed 3 times with ice-cold buffer and oven dried for one hour.
(§3) [^3H-] PGE2 (specific activity 180 Ci mmol) was used as the radioligand for EP receptors. [^3H] 17-phenyl PGF2α, was employed for FP receptor binding studies. Binding studies employing EP1, EP2, EP4 and FP receptors were performed in duplicate in at least three separate experiments. A 200 μl assay volume was used. Incubations were for 60 min at 25° C. and were terminated by the addition of 4 ml of ice-cold 50 mM TRIS-HCl, followed by rapid filtration through Whatman GF/B filters and three additional 4 ml washes in a cell harvester (Brandel). Competition studies were performed using a final concentration of 5 nM [^3H]-PGE2, or 5 nM [^3H] 17-phenyl PGF2αand non-specific binding determined with 10^−5M of unlabeled PGE2, or 17-phenyl PGF2α, according to receptor subtype studied.

hFP = target: T2, hFP (Homo sapiens, UniProt P43088); test: FLIPR calcium signal, FP; assay type: cell-based; settings: HEK-293(EBNA)
T2 construct: expressed in transfected cells
Method: (§4) HEK-293(EBNA) cells, stably expressing one type or subtype of recombinant human prostaglandin receptors (prostaglandin receptors expressed: hDP/Gqs5; hEP1; hEP2/Gqs5; hEP3A/Gqi5; hEP4/Gqs5; hFP; hIP; hTP), were cultured in 100 mm culture dishes in high-glucose DMEM medium containing 10% fetal bovine serum, 2 mM 1-glutamine, 250 μg/ml geneticin (G418) and 200 μg/ml hygromycin B as selection markers, and 100 units/ml penicillin G, 100 μg/ml streptomycin and 0.25 μg/ml amphotericin B.
(§5) Cells were seeded at a density of 5×10^4 cells per well in Biocoat® Poly-D-lysine-coated black-wall, clear-bottom 96-well plates (Becton-Dickinson) and allowed to attach overnight in an incubator at 37° C. Cells were then washed two times with HBSS-HEPES buffer (Hanks Balanced Salt Solution without bicarbonate and phenol red, 20 mM HEPES, pH 7.4) using a Denley Cellwash plate washer (Labsystems). After 45 minutes of dye-loading in the dark, using the calcium-sensitive dye Fluo-4 AM at a final concentration of 2 μM, plates were washed four times with HBSS-HEPES buffer to remove excess dye leaving 100 μl in each well. Plates were re-equilibrated to 37° C. for a few minutes.
(§6) Cells were excited with an Argon laser at 488 nm, and emission was measured through a 510-570 nm bandwidth emission filter (FLIPR™, Molecular Devices, Sunnyvale, Calif.). Drug solution was added in a 50 μl volume to each well to give the desired final concentration. The peak increase in fluorescence intensity was recorded for each well. On each plate, four wells each served as negative (HBSS-HEPES buffer) and positive controls (standard agonists: BW245C (hDP); PGE2 (HEP1; hEP2/Gqs5; hEP3A/Gqi5; hEP4/Gqs5); PGF2α (hFP); carbacyclin (hIP); U-46619 (hTP), depending on receptor). The peak fluorescence change in each drug-containing well was then expressed relative to the controls.
(§7) Compounds were tested in a high-throughput (HTS) or concentration-response (CoRe) format. In the HTS format, forty-four compounds per plate were examined in duplicates at a concentration of 10^−5 M. To generate concentration-response curves, four compounds per plate were tested in duplicates in a concentration range between 10^−5 and 10^−11 M. The duplicate values were averaged. In either, HTS or CoRe format each compound was tested on at least 3 separate plates using cells from different passages to give an n≧3.

hEP1 = target: T3, hEP1 (Homo sapiens, UniProt P34995); test: FLIPR calcium signal, EP1; assay type: cell-based; settings: HEK-293(EBNA)
T3 construct: expressed in transfected cells
T3 sequence (P34995 1-402): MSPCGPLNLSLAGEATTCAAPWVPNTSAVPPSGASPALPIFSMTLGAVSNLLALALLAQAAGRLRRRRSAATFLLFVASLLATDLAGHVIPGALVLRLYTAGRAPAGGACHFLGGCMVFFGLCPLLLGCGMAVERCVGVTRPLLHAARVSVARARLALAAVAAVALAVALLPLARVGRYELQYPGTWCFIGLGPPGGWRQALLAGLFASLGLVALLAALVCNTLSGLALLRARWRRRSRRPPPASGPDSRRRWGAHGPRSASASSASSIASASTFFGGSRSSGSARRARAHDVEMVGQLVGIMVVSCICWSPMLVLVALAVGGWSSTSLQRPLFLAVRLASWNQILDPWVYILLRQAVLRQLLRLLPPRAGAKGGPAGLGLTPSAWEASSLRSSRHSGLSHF
Method: as §4, §5, §6, §7

hEP4/Gqs5 = target: T4, hEP4/Gqs5 (Homo sapiens, UniProt P35408); test: FLIPR calcium signal, EP4; assay type: cell-based; settings: HEK-293(EBNA); for EC50: read-out: Ca2+ Signal-EC50 (nM) EP4
T4 construct: expressed in transfected cells
Method: as §4, §5, §6, §7

EP2 = EP2 (Homo sapiens, UniProt P43116); test: Competition binding, [3H]PGE2, EP2 (Ki); design: expressed in transfected cells; membranes or whole cells; settings: HEK 293 cells stably expressing human EP2, [3H]PGE2
Method: Competition binding experiments were performed in a medium containing Hank's balanced salt solution, Hepes 20 mM, pH 7.3, membranes (˜60 μg protein) or 2×10^5 cells from HEK 293 cells stably expressing human EP2 receptors, [^3H]PGE2 (10 nM) and various concentrations of test compounds in a total volume of 300 μl. Reaction mixtures were incubated at 23° C. for 60 min, and were filtered over Whatman GF/B filters under vacuum. Filters were washed three times with 5 ml ice-cold buffer containing 50 mM Tris/HCl (pH 7.3). Non-specific binding was estimated in the presence of excess unlabeled PGE2 (10 μM). Binding data fitted to the binding model for a single class of binding sites, using nonlinear regression analysis. IC50 values thus obtained were converted to Ki using the equation of Ki=(IC50/(1+[L]/KD) where [L] represents PGE2 concentration (10 nM) and KD the dissociation constant for [^3H]PGE2 at human EP2 receptors (40 nM).
as §1, §2, §3

T1 sequence (P35408 whole entry): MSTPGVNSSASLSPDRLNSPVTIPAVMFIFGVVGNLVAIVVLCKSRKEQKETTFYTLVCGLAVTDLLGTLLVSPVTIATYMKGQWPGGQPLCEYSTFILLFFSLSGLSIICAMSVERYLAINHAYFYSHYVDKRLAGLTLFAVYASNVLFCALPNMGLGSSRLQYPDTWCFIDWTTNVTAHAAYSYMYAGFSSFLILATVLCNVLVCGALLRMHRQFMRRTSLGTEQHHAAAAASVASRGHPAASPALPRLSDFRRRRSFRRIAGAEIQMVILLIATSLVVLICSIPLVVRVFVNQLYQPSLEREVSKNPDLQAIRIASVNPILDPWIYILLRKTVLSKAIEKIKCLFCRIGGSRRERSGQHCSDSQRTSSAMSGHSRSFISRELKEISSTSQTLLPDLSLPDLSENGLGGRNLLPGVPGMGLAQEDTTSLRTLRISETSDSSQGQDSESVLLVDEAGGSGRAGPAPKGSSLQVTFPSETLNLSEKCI
T4 sequence (P35408 whole entry): as above
Chain of EP2 (P43116 whole entry): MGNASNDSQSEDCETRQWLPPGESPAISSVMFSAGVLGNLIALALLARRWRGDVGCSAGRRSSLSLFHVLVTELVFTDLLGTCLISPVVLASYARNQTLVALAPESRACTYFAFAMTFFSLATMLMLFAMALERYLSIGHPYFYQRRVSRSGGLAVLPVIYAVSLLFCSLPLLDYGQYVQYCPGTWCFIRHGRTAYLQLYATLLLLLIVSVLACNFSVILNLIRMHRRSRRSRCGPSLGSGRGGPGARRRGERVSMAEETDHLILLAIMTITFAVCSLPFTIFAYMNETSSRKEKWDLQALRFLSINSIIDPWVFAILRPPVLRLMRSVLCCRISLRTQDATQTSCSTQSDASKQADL
T2 sequence (P43088 whole entry): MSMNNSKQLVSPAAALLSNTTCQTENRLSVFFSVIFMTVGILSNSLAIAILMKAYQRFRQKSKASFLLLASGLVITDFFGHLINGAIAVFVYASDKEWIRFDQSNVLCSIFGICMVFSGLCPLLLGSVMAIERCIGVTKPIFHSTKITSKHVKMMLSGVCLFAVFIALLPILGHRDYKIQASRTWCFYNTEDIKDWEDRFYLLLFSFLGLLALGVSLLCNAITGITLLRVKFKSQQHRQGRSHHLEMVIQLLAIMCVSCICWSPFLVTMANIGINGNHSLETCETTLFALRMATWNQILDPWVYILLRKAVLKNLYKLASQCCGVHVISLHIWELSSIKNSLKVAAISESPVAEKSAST

Compound	Ki (EP4 receptors)	Ca2+ Signal-EC50 (nM) FP (hFP)	Ca2+ Signal-EC50 (nM) EP1 (hEP1)	Ca2+ Signal-EC50 (nM) EP4 (hEP4/Gqs5)	Ki (EP2)	EC50 (hEP4/Gqs5)	BINDING-Ki (nM) EP4 (EP4 receptors)
O=C(O)CCC/C=C\C[C@@H]1[C@@H](c2ccc(C(O)CCc3ccccc3)cc2)[C@H](O)C[C@H]1Cl (stereo partly drawn) [Entry 23, (Z)-7-{(1R,2S,3R,5R)-5-Chloro-3-hydroxy-2-[4-(1-hydroxy-3-phenyl-propyl)-phenyl]-cyclopentyl}-hept-5-enoic acid]	> 10000 nM	not active	not active	–	1130 nM	> 10000 nM	–
O=C(O)CCC/C=C\C[C@@H]1[C@@H](c2ccc(C(O)c3ccccc3)cc2)[C@H](O)C[C@H]1Cl (stereo partly drawn) [Entry 28, (Z)-7-{(1R,2S,3R,5R)-5-Chloro-3-hydroxy-2-[4-(hydroxy-phenyl-methyl)-phenyl]-cyclopentyl}-hept-5-enoic acid]	–	not active	not active	not active	564 nM	–	not active
CCCCCC(O)c1ccc([C@@H]2[C@@H](CCCc3ncc(C(=O)O)s3)[C@H](Cl)C[C@H]2O)cc1 (stereo partly drawn) [Entry 5, 2-(3-{(1R,2S,3R,5R)-5-Chloro-3-hydroxy-2-[4-(1-hydroxy-hexyl)-phenyl]-cyclopentyl}-propyl)-thiazole-5-carboxylic acid]	–	not active	not active	–	6170 nM	> 10000 nM	–
CCCCC(O)c1cccc([C@@H]2[C@@H](C/C=C\CCCC(=O)O)[C@H](Cl)C[C@H]2O)c1 (stereo partly drawn) [Entry 30, (Z)-7-{(1R,2S,3R,5R)-5-Chloro-3-hydroxy-2-[3-(1-hydroxy-pentyl)-phenyl]-cyclopentyl}-hept-5-enoic acid]	> 10000 nM	not active	not active	not active	1260 nM	–	–
CCCCCC(O)c1ccc([C@@H]2[C@@H](Cc3cccc(CCC(=O)O)c3)[C@H](Cl)C[C@H]2O)cc1 (stereo partly drawn) [Entry 3, 3-(3-{(1R,2S,3R,5R)-5-Chloro-3-hydroxy-2-[4-(1-hydroxy-hexyl)-phenyl]-cyclopentylmethyl}-phenyl)-propionic acid]	3950 nM	not active	not active	–	2780 nM	–	–

The remaining lines, values ahead:

Ki (EP4 receptors)	Ca2+ Signal-EC50 (nM) FP (hFP)	Ca2+ Signal-EC50 (nM) EP1 (hEP1)	Ca2+ Signal-EC50 (nM) EP4 (hEP4/Gqs5)	Ki (EP2)	EC50 (hEP4/Gqs5)	BINDING-Ki (nM) EP4 (EP4 receptors)	Compound
2260 nM	not active	not active	not active	278 nM	–	–	CCCCCCC(O)c1ccc([C@@H]2[C@@H](C/C=C\CCCC(=O)O)[C@H](Cl)C[C@H]2O)cc1 (stereo partly drawn) [Entry 25, (Z)-7-{(1R,2S,3R,5R)-5-Chloro-3-hydroxy-2-[4-(1-hydroxy-heptyl)-phenyl]-cyclopentyl}-hept-5-enoic acid]
–	not active	not active	not active	589 nM	–	–	CCCCC(O)c1ccc([C@@H]2[C@@H](C/C=C\CCCC(=O)O)[C@H](Cl)C[C@H]2O)cc1 (mixture of isomers) [Entry 27, (Z)-7-{(1R,2S,3R,5R)-5-Chloro-3-hydroxy-2-[4-(1-hydroxy-pentyl)-phenyl]-cyclopentyl}-hept-5-enoic acid]
5410 nM	not active	not active	not active	182 nM	–	–	CCCCCC(O)C(C)(C)c1ccc([C@@H]2[C@@H](C/C=C\CCCC(=O)O)[C@H](Cl)C[C@H]2O)cc1 (stereo partly drawn) [Entry 31, (Z)-7-{(1R,2S,3R,5R)-5-Chloro-3-hydroxy-2-[4-(2-hydroxy-1,1-dimethyl-heptyl)-phenyl]-cyclopentyl}-hept-5-enoic acid]
> 10000 nM	not active	not active	–	83 nM	> 10000 nM	–	CCCCCCc1ccc([C@@H]2[C@@H](C/C=C\CCCC(=O)O)[C@H](Cl)C[C@H]2O)cc1 [Entry 33, (Z)-7-[(1R,2S,3R,5R)-5-Chloro-2-(4-hexyl-phenyl)-3-hydroxy-cyclopentyl]-hept-5-enoic acid]
> 10000 nM	not active	not active	–	73 nM	> 10000 nM	–	CCCCCC(O)c1ccc([C@@H]2[C@@H](C/C=C\CCCC(=O)O)[C@H](Cl)C[C@H]2O)cc1 (single isomer, unassigned) [Entry 13]
–	not active	not active	not active	12 nM	–	–	CCCCCC(O)c1ccc([C@@H]2[C@@H](C/C=C\CCCC(=O)O)[C@H](Cl)C[C@@H]2O)cc1 (stereo partly drawn) [Entry 34, (Z)-7-{(1R,2S,3S,5R)-5-Chloro-3-hydroxy-2-[4-(1-hydroxy-hexyl)-phenyl]-cyclopentyl}-hept-5-enoic acid]
> 10000 nM	not active	not active	not active	1390 nM	–	–	CCCCCC(O)c1cccc([C@@H]2[C@@H](C/C=C\CCCC(=O)O)[C@H](Cl)C[C@H]2O)c1 (stereo partly drawn) [Entry 29, (Z)-7-{(1R,2S,3R,5R)-5-Chloro-3-hydroxy-2-[3-(1-hydroxy-hexyl)-phenyl]-cyclopentyl}-hept-5-enoic acid]
